Measurements from publication PMC9969401, “Discovery of 2-(3-Benzamidopropanamido)thiazole-5-carboxylate Inhibitors of the Kinesin HSET (KIFC1) and the Development of Cellular Target Engagement Probes” (Journal of Medicinal Chemistry, 2023).

Molecular target: T1, HSET in DLD1 4N cells (Homo sapiens, UniProt Q9BW19)
T1 construct: overlapped with the signal from the antibody-probed endogenous HSET protein; endogenous in cells; host or cells: DLD1 4N cells
T1 sequence (Q9BW19 1-673): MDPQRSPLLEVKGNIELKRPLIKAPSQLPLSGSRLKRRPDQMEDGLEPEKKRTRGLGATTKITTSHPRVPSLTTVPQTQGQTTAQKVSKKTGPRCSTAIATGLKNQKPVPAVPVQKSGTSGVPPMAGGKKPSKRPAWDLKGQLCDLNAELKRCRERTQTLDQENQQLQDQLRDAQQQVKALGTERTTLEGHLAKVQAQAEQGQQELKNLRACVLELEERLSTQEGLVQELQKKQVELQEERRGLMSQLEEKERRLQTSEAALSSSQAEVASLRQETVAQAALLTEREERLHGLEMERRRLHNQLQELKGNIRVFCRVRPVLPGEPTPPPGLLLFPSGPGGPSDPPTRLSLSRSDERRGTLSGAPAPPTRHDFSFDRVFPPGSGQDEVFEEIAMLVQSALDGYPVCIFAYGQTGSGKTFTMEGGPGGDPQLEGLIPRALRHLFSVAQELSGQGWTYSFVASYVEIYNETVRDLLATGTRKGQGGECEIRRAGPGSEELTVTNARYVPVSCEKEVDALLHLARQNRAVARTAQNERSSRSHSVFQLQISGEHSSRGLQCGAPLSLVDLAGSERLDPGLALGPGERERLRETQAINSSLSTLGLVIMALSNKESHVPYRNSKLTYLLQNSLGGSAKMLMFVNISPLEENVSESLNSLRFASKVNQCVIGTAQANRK
Assay: Click probe localization target engagement imaging in DLD1 4N cells
Assay type: cell-based
Conditions: for Average Pixel intensity: DLD1 4N, Tz-Cy5 800nM
Description: The Cy-5 tetrazine dye selected for this experiment is not cell-permeable, thus fixation and permeabilization of cells were necessary prior to its addition. Experiments were conducted in DLD1 4N cells and, as a negative control, isogenic 2N DLD1 HSET KO cells in which HSET expression was prevented by the disruption of the HSET gene using CRISPR. Cells were treated first with proTAME for 2 h to accumulate mitotic events, followed by treatment with the TCO probe 40 for 45 min. The live cells were then fixed and permeabilized before treatment with the tetrazine-Cy5 dye and incubation to allow the IEDDA reaction to occur. Additionally, the cells were stained for the endogenous HSET protein using indirect immunofluorescence and imaged to observe the fluorescence from both the TCO probe and antibody-labeled HSET. […] A 3 μM concentration of the probe 40 gave an acceptable signal-to-noise ratio of around 2:1. Even under these optimal conditions, some residual uniform cytoplasmic Cy5 signal was observed within the cells. However, a clear Cy5 decoration of the mitotic spindle was seen, which overlapped with the signal from the antibody-probed endogenous HSET protein (Figures 2A and S6). […] We observed a 14–17-fold increase in signal in DLD1 4N cells treated with 40 relative to tetrazine-Cy5 alone. […] Comparing the intensity of click probe labeling coincident with the mitotic spindle in DLD1 4N cells to that in DLD1 HSET KO cells after both were treated with 40, we observed a twofold higher signal in the former.
Direct target engagement of active inhibitor 36 was measured by calculating its capacity to displace the TCO-containing probe 40. 4N DLD1 cells and DLD1 HSET KO cells (negative control) were plated in 96-well ibidi μ-Clear plates (IB-89626, ibidi). Cells were first treated for 2 h with 8 μM pro-TAME (I-440–01M, R&D system) to accumulate mitotic cells and were then treated with 8 μM MG-132 (S2619, SelleckChem) and 3 μM 40, alone or together with active inhibitor 36 in DMEM media with 1% FBS for 45 min. Cells were then washed three times in DMEM, with the second wash being incubated for 10 min to ensure the optimal reduction of unspecific compound binding. After an additional PBS wash, cells were then fixed in 4% PFA/PBS (15670799, Thermo Scientific) prior to incubation with 400 nM tetraszine-Cy5 (CLK-015-05, Jena Biosciences) in 1.5% FBS/PBS for 10 min at room temperature. Cells were permeabilized by the addition of 0.5% TritonX-100/PBS for 5 min before being stained overnight for Pericentrin (1:1500 ab28144 mouse anti-PCNT, Abcam) and KIFC1 (1:1500 12313S rabbit anti-KIFC1, Cell Signaling Technologies). Secondary antibodies Alexa Fluor 488 donkey antirabbit and Alexa Fluor 555 donkey antimouse (1:1500, A21206 and A31570, respectively, Life Technologies) were added together with 1 μg/mL DAPI (D9542, Sigma) in 1.5% FBS in PBS.
Plates were imaged at 40× using a Zeiss LSM980 confocal microscope with Airyscan 2. The subsequent analysis and quantification were performed using 3D image segmentation with the Arivis4D software. Mitotic cells were segmented by selecting for the highest density (integrated DAPI intensity/total volume), and the mitotic pole areas were segmented using the Pericentrin signal. The signal of the click probe (Cy5) and total KIFC1 (FITC) was measured on the mitotic pole area, and both were normalized to the control condition containing 40 probe alone. The ratio of probe per target (click probe pole integrated intensity signal/KIFC1 pole integrated intensity signal) was used to calculate the occupancy of the probe in the target protein and normalized to the control condition containing 40 probe alone (n > 100 for each replicate, two replicates per concentration point).

displacement of TCO probe 40 from HSET in cells (in words) (competition with 3 μM 40, up to 10 μM 36)	Average Pixel intensity (5μM, Panel A: 3 quick washes at room temperature)	Average Pixel intensity (5μM, Panel B: 2 quick washes then 1 at 37 °C for 5 minutes)	Average Pixel intensity (5μM, Panel C: 2 quick washes then 1 at 37 °C for 10 minutes)	Average Pixel intensity (10μM, Panel A: 3 quick washes at room temperature)	Average Pixel intensity (10μM, Panel B: 2 quick washes then 1 at 37 °C for 5 minutes)	Average Pixel intensity (10μM, Panel C: 2 quick washes then 1 at 37 °C for 10 minutes)	SMILES
dose-dependent manner							CCCOC(=O)c1sc(NC(=O)C[C@H](CCCN(C)C)NC(=O)c2cccc(-c3noc(C)n3)c2)nc1C [Compound 36, Propyl (S)-2-(6-(Dimethylamino)-3-(3-(5-methyl-1,2,4-oxadiazol-3-yl)benzamido)hexanamido)-4-methylthiazole-5-carboxylate]
	5372	6057	4723	7167	7628	6337	CCCOC(=O)c1sc(NC(=O)C[C@H](CCCN(C)C(=O)O[C@@H]2CC/C=C/CCC2)NC(=O)c2cccc(-c3noc(C)n3)c2)nc1C [Compound 38, Propyl 2-((S)-6-(((((S,E)-Cyclooct-4-en-1-yl)oxy)carbonyl)(methyl)amino)-3-(3-(5-methyl-1,2,4-oxadiazol-3-yl)benzamido)hexanamido)-4-methylthiazole-5-carboxylate]
